Experimental data published in publication PMC12681940, “Schisandrin B Targets PXR to Enhance Bile Acid Metabolism and Alleviate ANIT-Induced Cholestatic Liver Injury via Dual Pathways” (International Journal of Biological Sciences, 2026).

Target: T1, pregnane X receptor (PXR) (Homo sapiens, UniProt O75469)
T1 construct: gene NR1I2
T1 sequence (O75469 106-434): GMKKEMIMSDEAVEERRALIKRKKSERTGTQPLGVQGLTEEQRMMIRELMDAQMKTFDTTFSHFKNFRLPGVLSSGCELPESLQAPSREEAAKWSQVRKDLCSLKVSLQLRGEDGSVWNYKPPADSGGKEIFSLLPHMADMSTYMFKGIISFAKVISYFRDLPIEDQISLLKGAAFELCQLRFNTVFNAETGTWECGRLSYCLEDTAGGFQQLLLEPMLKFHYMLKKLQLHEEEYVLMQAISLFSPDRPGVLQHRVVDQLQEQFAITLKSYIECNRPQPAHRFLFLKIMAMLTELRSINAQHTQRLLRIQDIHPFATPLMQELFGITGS
Assay: biochemical

Structure (SMILES): COc1cc2c(c(OC)c1OC)-c1c(cc3c(c1OC)OCO3)CC(C)C(C)C2 (stereo not shown) [Sin B, Schisandrin B]
- Kd: 6.6 µM
